In US7842710B2, “Carboxamides” (Bayer Cropscience AG, priority 2004, dated 2010):
Each block holds one compound with its values, some of them ahead of it.

Key:
[1] = logP determination by HPLC on a reverse phase column (C18), EEC Directive 79/831 Annex V.A8; assay type: physicochemical; details: pH 2 as printed, HPLC C18, 43° C.
Podosphaera leucotricha = assay: Podosphaera test (apple)/protective; assay type: in vivo; details: protective, application rate 100 g/ha, evaluation ten days after inoculation, 0% = control, 100% = no infestation
Experimental: (§1) [table] To produce an appropriate active ingredient preparation, one part by weight of the active substance is mixed with the specified quantities of solvent and emulsifying agent, and the concentrate is diluted with water to the desired concentration. Young plants are sprayed with the active ingredient preparation at the specified application rate to test the effectiveness of protection. After the sprayed coating has dried, the plants are inoculated with an aqueous spore suspension of the apple mildew pathogen Podosphaera leucotricha. Then the plants are placed in the greenhouse at about 23° C. with relative humidity of about 70%. The evaluation is performed ten days after the inoculation. A degree of effectiveness rating of 0% corresponds to the control, with 100% indicating no infestation observed.

Venturia inaequalis = assay: Venturia test (apple)/protective; assay type: in vivo; details: protective, application rate 100 g/ha, evaluation ten days after inoculation, 0% = control, 100% = no infestation
Experimental: as §1, with “conidia” for “spore”, “scab” for “mildew”, “Venturia inaequalis and are then kept in an incubator at 20° C. and 100% relatively humidity for one day.” for “Podosphaera leucotricha.”, “21°” for “23°”, “90%.” for “70%.”

Botrytis cinerea = assay: Botrytis test (bean)/protective; assay type: in vivo; details: protective, application rate 500 g/ha, evaluation two days after inoculation, 0% = control, 100% = no infestation
Experimental: [table] To produce an appropriate active ingredient preparation, one part by weight of the active substance is mixed with the specified quantities of solvent and emulsifying agent, and the concentrate is diluted with water to the desired concentration. Young plants are sprayed with the active ingredient preparation at the specified application rate to test the effectiveness of protection. After the sprayed coating has dried, two small pieces of agar with cultured Botrytis cinerea are placed on each leaf. The inoculated plants are placed in a darkened chamber at about 20° C. and 100% relatively humidity. Two days after the inoculation, the size of the infestation spots on the leaves is evaluated. A degree of effectiveness rating of 0% corresponds to the control, with 100% indicating no infestation observed.

Puccinia recondita = assay: Puccinia test (wheat)/protective; assay type: in vivo; details: 240 h, protective, application rate 500 g/ha, evaluation ten days after inoculation, 0% = control, 100% = no infestation, read-out: Degree of effectiveness in %
Experimental: [table] To produce an appropriate active ingredient preparation, one part by weight of the active substance is mixed with the specified quantities of solvent and emulsifying agent, and the concentrate is diluted with water to the desired concentration. Young plants are sprayed with the active ingredient preparation at the specified application rate to test the effectiveness of protection. After the sprayed coating has dried, the plants are sprayed with a conidia suspension of Puccinia recondita. The plants are kept in an incubator at 20° C. and 100% relatively humidity for 48 hours. Then the plants are placed in a greenhouse at a temperature of about 20° C. and a relatively humidity of 80%, in order to promote the development of rust spots. The evaluation is performed ten days after the inoculation. A degree of effectiveness rating of 0% corresponds to the control, with 100% indicating no infestation observed.

Alternaria solani = assay: Alternaria test (tomato)/protective; assay type: in vivo; details: protective, application rate 750 g/ha, evaluation seven days after inoculation, 0% = control, 100% = no infestation
Experimental: [table] To produce an appropriate active ingredient preparation, one part by weight of the active substance is mixed with the specified quantities of solvent and emulsifying agent, and the concentrate is diluted with water to the desired concentration. Young tomato plants are sprayed with the active ingredient preparation at the specified application rate to test the effectiveness of protection. One day after treatment, the plants are inoculated with a spore suspension of Alternaria solani and are kept for 24 hours at 100% relatively humidity and 20° C. Subsequently, the plants are kept at 96% relatively humidity and a temperature of 20° C. The evaluation is performed seven days after the inoculation. A degree of effectiveness rating of 0% corresponds to the control, with 100% indicating no infestation observed.

- chromatographic logP [1]: 1.99
SMILES: CC(C)S(=O)(=O)C(C)c1ccccc1[N+](=O)[O-] (stereo not drawn) [VII-4, 1-[1-(isopropylsulfonyl)ethyl]-2-nitrobenzene]

SMILES: Cc1nn(C)c(F)c1C(=O)Nc1ccccc1C(C)SC(C)C (stereo not drawn) [drawing 482]
- Degree of effectiveness in % (Podosphaera leucotricha): 91%

SMILES: CC(C)SC(C)c1ccccc1NC(=O)c1cn(C)nc1C(F)F (stereo not drawn) [drawing 483]
- Degree of effectiveness in % (Podosphaera leucotricha): 84%

SMILES: CCC(C)SC(C)c1ccccc1NC(=O)c1cn(C)nc1C(F)F (stereo not drawn) [drawing 484]
- Degree of effectiveness in % (Podosphaera leucotricha): 94%

SMILES: Cc1nn(C)c(F)c1C(=O)Nc1ccccc1C(C)SC(C)C (stereo not drawn) [drawing 485]
- Degree of effectiveness in % (Venturia inaequalis): 95%

SMILES: CCCC(C)SC(C)c1ccccc1NC(=O)c1sc(C)nc1C(F)(F)F (stereo not drawn) [drawing 486]
- Degree of effectiveness in % (Venturia inaequalis): 89%

SMILES: CCC(C)SC(C)c1ccccc1NC(=O)c1cn(C)nc1C(F)F (stereo not drawn) [drawing 487]
- Degree of effectiveness in % (Venturia inaequalis): 99%

SMILES: CC(C)SC(C)c1ccccc1NC(=O)c1cn(C)nc1C(F)(F)F (stereo not drawn) [drawing 488]
- Degree of effectiveness in % (Botrytis cinerea): 84%

SMILES: CC(C)SC(C)c1ccccc1NC(=O)c1cn(C)nc1C(F)F (stereo not drawn) [drawing 489]
- Degree of effectiveness in % (Botrytis cinerea): 100%

SMILES: CCCC(C)SC(C)c1ccccc1NC(=O)c1sc(C)nc1C(F)(F)F (stereo not drawn) [drawing 490]
- Degree of effectiveness in % (Botrytis cinerea): 99%

SMILES: CCC(C)SC(C)c1ccccc1NC(=O)c1cn(C)nc1C(F)(F)F (stereo not drawn) [drawing 491]
- Degree of effectiveness in % (Botrytis cinerea): 100%

SMILES: CCCC(C)SC(C)c1ccccc1NC(=O)c1cn(C)nc1C(F)F (stereo not drawn) [drawing 492]
- Degree of effectiveness in % (Botrytis cinerea): 97%

SMILES: CC(C)SC(C)c1ccccc1NC(=O)c1cn(C)cc1C(F)(F)F (stereo not drawn) [drawing 493]
- Degree of effectiveness in % (Botrytis cinerea): 97%

SMILES: Cc1nn(C)c(F)c1C(=O)Nc1ccccc1C(C)SC(C)C (stereo not drawn) [drawing 502]
- pest or weed control at 500 g/ha (Puccinia recondita): 100%

SMILES: CCC(C)SC(C)c1ccccc1NC(=O)c1cn(C)nc1C (stereo not drawn) [drawing 504]
- pest or weed control at 500 g/ha (Puccinia recondita): 100%

SMILES: CCC(C)SC(C)c1ccccc1NC(=O)c1sc(C)nc1C(F)F (stereo not drawn) [drawing 505]
- pest or weed control at 500 g/ha (Puccinia recondita): 100%

SMILES: CCCC(C)SC(C)c1ccccc1NC(=O)c1sc(C)nc1C(F)F (stereo not drawn) [drawing 506]
- pest or weed control at 500 g/ha (Puccinia recondita): 100%

SMILES: CCC(C)SC(C)c1ccccc1NC(=O)c1cn(C)nc1C(F)F (stereo not drawn) [drawing 507]
- pest or weed control at 500 g/ha (Puccinia recondita): 100%

SMILES: CCC(C)SC(C)c1ccccc1NC(=O)C1=C(C)OCCS1 (stereo not drawn) [drawing 508]
- pest or weed control at 500 g/ha (Puccinia recondita): 100%

SMILES: CC1=C(C(=O)Nc2ccccc2C(C)SC(C)C)SCCO1 (stereo not drawn) [drawing 509]
- pest or weed control at 500 g/ha (Puccinia recondita): 100%

SMILES: CC(C)SC(C)c1ccccc1NC(=O)c1cn(C)cc1C(F)(F)F (stereo not drawn) [drawing 510]
- pest or weed control at 500 g/ha (Puccinia recondita): 100%

SMILES: CC(C)OCc1ccccc1NC(=O)c1cn(C)nc1C(F)(F)F [drawing 515]
- Degree of effectiveness in % (Alternaria solani): 95%

SMILES: Cc1nn(C)c(F)c1C(=O)Nc1ccccc1C(C)SC(C)C (stereo not drawn) [drawing 516]
- Degree of effectiveness in % (Alternaria solani): 90%

SMILES: CCC(C)SC(C)c1ccccc1NC(=O)c1c(C)nn(C)c1F (stereo not drawn) [drawing 517]
- Degree of effectiveness in % (Alternaria solani): 95%
